Reference: US20040220277A1, “Enantiomeric amphetamine compositions” (priority 2003, published 2004)

How the values were obtained:
[1] = tested on: noradrenaline (NA) release, frontal cortex; assay: Basal release of tritiated noradrenaline from rat brain slices in vitro (Brandel system); assay type: cell-based
Experimental: The DA and NA release is measured in separate brain areas, i.e., in striatum for DA release (evaluating tritiated dopamine) and in the frontal cortex for NA release (evaluating tritiated noradrenaline), using a Brandel system. The brain slices are loaded with the tritiated monoamine (dopamine or noradrenaline) and then superfused to produce basal neurotransmitter release. The slices are also subjected to 2 short periods of electrical stimulation to effect stimulated transmitter release.

[2] = tested on: spontaneously hypertensive rat (SHR); assay: Behavioural study, multiple Random-Interval/Extinction operant schedule in the SHR model of ADHD; assay type: in vivo; settings: for General activity level (total number of lever presses), overactivity / Impulsiveness (number of responses with short IRTs): d 0.5-1.5 mg/kg, l 1.0-3.0 mg/kg i.p.; for Sustained attention following transformation: transformed data, saline as baseline, FIG. 6
Description: (§1) Subjects: A total number of 32 male rats, 16 spontaneously hypertensive (SHR) and 16 Wistar/Kyoto (WKY), participated in final part of this study. (Initially, 8 extra rats, 6 SHRs and 2 controls, were trained with a view to select two groups of 16 with the greatest difference in baseline measures. However, there was little difference when comparing all the rats with a selected subgroup—they both separated well.) At the start of testing, the rats were ˜5 wk old and experimentally naive. Young rats were required, as ADHD primarily is a child and adolescent disorder. The SHRs were obtained from Charles River Italy (SHR/Cr1 Ico) and the WKYs from Charles River France (WKY/Nico) as other breeding centers were unable to deliver rats at the time we needed them. At the University of Oslo, the rats were housed individually in 41×25×25 (height) cm transparent cages and had free access to food (BK Standard RM 1 from Beekay Feeds Universal Ltd.).
(§2) The rats had access to water at all times during the habituation period. However, after completing the habituation period, the rats were deprived of water for 21 hr a day. The rats received water as reinforcers during the experimental session and had free access to water for 90 min after the experimental session. The temperature in the housing area was ˜20° C. The light in the housing area was on from 0700 to 1900 hours. The behavioral training took place between 0900 and 1230 hours seven days a week.
(§3) Behavioral apparatus: Sixteen Campden Instruments operant chambers were used in the study. The animal working space in eight of the chambers is 25×25×30 (height) cm and 25×25×20 (height) cm in the other eight chambers. The 2.8-W house light and a fan producing a low masking noise were on during the entire experimental session.
(§4) During training sessions, either one or two retractable levers were used. A 2.8-W cue light was located above each lever. The rats' response consisted of pressing one of the levers with a dead weight of at least 3 g to activate a microswitch. The reinforcers (0.01 ml tap water) were delivered by a liquid dipper located in a small recessed cubicle with a 2.8-W cue light lit when a reinforcer is presented. A 7×5 cm transparent plastic lid separated the cubicle from the rat's working space. The rat could easily open the lid with a light push with the nose or paw. Each chamber was ventilated and placed in a sound-resistant outer housing. A computer and an online system (SPIDER, Paul Fray, Ltd., UK) recorded the behavior and scheduled reinforcers (drops of water).
Before the initiation of the study, the rats were randomized and balanced into two groups. Each group of rats consisted of an equal number of SHRs and WKYs. Each rat was assigned to a specific chamber, which it occupied during all sessions. The rat was returned to its living cage after each session. All animals were run seven days a week.
Response acquisition: The training period started with a single 30-min habituation session. During the habituation session, the lid between the working space and the reinforcement cubicle was kept open. No lever was present and no cue light above any lever was lit. The house light was on. From this time on the rats were deprived of water for 21 hr a day; this is a moderate, but sufficient deprivation for motivating the animal.
The habituation session was followed by two 30-min magazine training sessions. The lid was taped open, no levers were present, and the house light was on, but the cue lights above the levers were not lit. The computer delivered water on the average every 10s independent of the rat's behavior (a variable-time schedule).
In the next two sessions, the rat was trained to open the lid to gain access to the water. The lid was not taped open, no levers were present and the lights above the levers were not activated. The house light was on. Each lid opening was followed by a presentation of a single drop of water. […]

[3] = tested on: Wistar Kyoto Rat (WKY); assay: Behavioural study, multiple Random-Interval/Extinction operant schedule in WKY controls; assay type: in vivo; settings: single isomers; for General activity level: FIG. 3; for Impulsiveness: FIG. 4
Description: as §1, §2, §3, §4
Before the initiation of the study, the rats were randomized and balanced into two groups. Each group of rats consisted of an equal number of SHRs and WKYs. Each rat was assigned to a specific chamber, which it occupied during all sessions. […]

[4] = tested on: Rats; assay: Weight gain, food and water intake in rats with 3 hours per day access; assay type: in vivo, rat; settings: for Body weight gain: once a day dosing, measured every day; for Water intake: once a day, one hour before 3 h access to food and water; for Food intake: over the 3 hours of access each day, 10 day period
Experimental: Rats were given access to food and water for 3 hours per day. The acclimation period was 10 days. Thereafter, vehicle or doses of l- or d-amphetamine sulphate were administered to the rats once a day one hour before access to food and water. Body weight was measured every day (FIG. 11) before the drug administration and then food intake (FIG. 12) and water intake were measured over the 3 hours each day when the rats had access to the same.

[5] = tested on: Rj: Wistar (Han) rats; assay: EEG sleep-wake cycle in conscious freely-moving rats; assay type: in vivo, rat
Experimental: They were supplied by Elevage Janvier, 53940 Le Genest-Saint-Isle, France.
Implanted animals were individually placed in transparent perspex boxes in a soundproof, light-controlled, ventilated cabin and were habituated to the recording environment for at least 10 days. Drug-free baseline EEG was recorded for 23 hours. Then the rats were administered vehicle and the EEG recorded for another 23 hours. The next day, rats were treated with one of the 4 amphetamine forms first at the dose of 3 mg/kg, than at the dose of 1 mg/kg. The following variables were measured: latency to the appearance of stable slow-wave sleep (SWS), latency to the first appearance of rapid-eye-movement sleep (REM), the number of REM sleep phases, and the distribution percentage of wake/SWS/REM (sleep architecture).
Test sessions following treatment were individually compared with corresponding control sessions. As no differences were apparent after vehicle, the 2 control sessions with and without vehicle, were averaged.

[6] = between 4 and 8 h after administration, 3 mg/kg

SMILES	Potency in releasing NA from cortex compared with DA from striatum [1]	Sustained attention, performance versus saline ([2]; 2 mg/kg, T-test with dependent samples, p <0.01)	General activity level (total number of lever presses), overactivity ([2]; FIG. 3)	Impulsiveness (number of responses with short IRTs) ([2]; FIG. 4)	Sustained attention (percentage of correct lever choices) ([2]; low doses, untransformed, FIG. 5)	Sustained attention following transformation [2]	General activity level [3]	Impulsiveness [3]	Body weight gain [4]	Water intake [4]	Food intake [4]	REM sleep ([5]; between 4 and 8 h after administration, 1 mg/kg)	General activity level (total number of lever presses), overactivity ([2]; FIG. 3, listed as D-amphetamine)	Impulsiveness (number of responses with short IRTs) ([2]; FIG. 4, listed as D-amphetamine)	Delay to onset of REM sleep compared with the other dose ([5]; 3 mg/kg)	Effects on SWS and wake compared with the l-isomer ([5]; 3 mg/kg, first 4 h of recording)	SWS [5, 6]	Waking [5, 6]	Duration of effects on the sleep-wake cycle ([5]; rat, in vivo)	Overall potency on the sleep-wake cycle ([5]; rat, in vivo)
C[C@@H](N)Cc1ccccc1 [l-amphetamine]	considerably more potent at releasing NA from cortex than DA from striatum	performed better	reduced	less efficient than d-amphetamine	improved sustained attention more markedly than low doses of d-amphetamine	significant improvement	unaffected	unaffected	dose-related reductions	little effect	decreased food intake over the first 1-2 days only									
CC(N)Cc1ccccc1.NC(CC(=O)O)C(=O)O (racemic) [dl-amphetamine aspartate]												reduced								
C[C@H](N)Cc1ccccc1 [d-amphetamine]			reduced	reduced		disappeared	unaffected	unaffected	dose-related reductions	little effect	decreased food intake over the measured 10 day period		more than l-amphetamine	more than l-amphetamine	tended to be longer	significantly greater than the l-isomer	reduced	increased	longer lasting	more potent than l-amphetamine
